# Experimental data taken from ChEMBL document CHEMBL4507324 (2021).
# Experiments:
# Settings in all cases: Compound concentration 100.0 nM
# [1] = test system: Tyrosine-protein kinase ABL1 (Homo sapiens), P00519 [F317L]
# [2] = target: RAC-gamma serine/threonine-protein kinase (Homo sapiens) (UniProt Q9Y243)
# [3] = target: Bone morphogenetic protein receptor type-2 (Homo sapiens) (UniProt Q13873)
# [4] = target: Serine/threonine-protein kinase B-raf (Homo sapiens, UniProt P15056)
# [5] = target: Calcium/calmodulin-dependent protein kinase type 1B (Homo sapiens) (UniProt Q6P2M8)
# [6] = target: Cyclin-dependent kinase 4 (Homo sapiens) (UniProt P11802)
# [7] = target: Casein kinase I isoform gamma-2 (Homo sapiens) (UniProt P78368)
# [8] = target: Death-associated protein kinase 1 (Homo sapiens) (UniProt P53355)
# [9] = target: Epithelial discoidin domain-containing receptor 1 (Homo sapiens) (UniProt Q08345)
# [10] = test system: Epidermal growth factor receptor (Homo sapiens), P00533 [UNDEFINED MUTATION]
# [11] = test system: Epidermal growth factor receptor (Homo sapiens), P00533 [L861Q]
# [12] = target: Ephrin type-A receptor 1 (Homo sapiens) (UniProt P21709)
# [13] = target: Mitogen-activated protein kinase 7 (Homo sapiens) (UniProt Q13164)
# [14] = test system: Receptor-type tyrosine-protein kinase FLT3 (Homo sapiens), P36888 [D835V]
# [15] = test system: Receptor-type tyrosine-protein kinase FLT3 (Homo sapiens), P36888 [D835Y]
# [16] = target: Beta-adrenergic receptor kinase 1 (Homo sapiens) (UniProt P25098)
# [17] = target: Insulin-like growth factor 1 receptor (Homo sapiens) (UniProt P08069)
# [18] = target: Tyrosine-protein kinase ITK/TSK (Homo sapiens) (UniProt Q08881)
# [19] = test system: Mast/stem cell growth factor receptor Kit (Homo sapiens), P10721 [V559D,T670I]
# [20] = target: Serine/threonine-protein kinase STK11 (Homo sapiens) (UniProt Q15831)
# [21] = target: Tyrosine-protein kinase Lyn (Homo sapiens) (UniProt P07948)
# [22] = target: Mitogen-activated protein kinase kinase kinase kinase 4 (Homo sapiens) (UniProt O95819)
# [23] = target: Dual specificity mitogen-activated protein kinase kinase 2 (Homo sapiens) (UniProt P36507)
# [24] = target: Misshapen-like kinase 1 (Homo sapiens) (UniProt Q8N4C8)
# [25] = target: Dual specificity mitogen-activated protein kinase kinase 7 (Homo sapiens) (UniProt O14733)
# [26] = target: Mitogen-activated protein kinase kinase kinase 10 (Homo sapiens) (UniProt Q02779)
# [27] = target: Serine/threonine-protein kinase 26 (Homo sapiens) (UniProt Q9P289)
# [28] = target: Myosin-IIIb (Homo sapiens) (UniProt Q8WXR4)
# [29] = target: Mitogen-activated protein kinase 13 (Homo sapiens) (UniProt O15264)
# [30] = target: Serine/threonine-protein kinase PAK 1 (Homo sapiens) (UniProt Q13153)
# [31] = target: 3-phosphoinositide-dependent protein kinase 1 (Homo sapiens) (UniProt O15530)
# [32] = test system: Phosphatidylinositol 4,5-bisphosphate 3-kinase catalytic subunit alpha isoform (Homo sapiens), P42336 [M1043I]
# [33] = target: Serine/threonine-protein kinase pim-3 (Homo sapiens) (UniProt Q86V86)
# [34] = target: Phosphatidylinositol 5-phosphate 4-kinase type-2 gamma (Homo sapiens) (UniProt Q8TBX8)
# [35] = target: Serine/threonine-protein kinase D3 (Homo sapiens) (UniProt O94806)
# [36] = test system: Proto-oncogene tyrosine-protein kinase receptor Ret (Homo sapiens), P07949 [V804L]
# [37] = target: Serine/threonine-protein kinase RIO1 (Homo sapiens) (UniProt Q9BRS2)
# [38] = target: Serine/threonine-protein kinase RIO3 (Homo sapiens) (UniProt O14730)
# [39] = target: Ribosomal protein S6 kinase alpha-1 (Homo sapiens) (UniProt Q15418)
# [40] = target: Serine/threonine-protein kinase Sgk2 (Homo sapiens) (UniProt Q9HBY8)
# [41] = target: SRSF protein kinase 2 (Homo sapiens) (UniProt P78362)
# [42] = target: Serine/threonine-protein kinase 33 (Homo sapiens) (UniProt Q9BYT3)
# [43] = target: Tyrosine-protein kinase TXK (Homo sapiens) (UniProt P42681)
# [44] = target: Serine/threonine-protein kinase VRK2 (Homo sapiens) (UniProt Q86Y07)
# [45] = target: Tyrosine-protein kinase ZAP-70 (Homo sapiens) (UniProt P43403)
# Chain of Serine/threonine-protein kinase Sgk2 (Homo sapiens) (Q9HBY8 whole entry): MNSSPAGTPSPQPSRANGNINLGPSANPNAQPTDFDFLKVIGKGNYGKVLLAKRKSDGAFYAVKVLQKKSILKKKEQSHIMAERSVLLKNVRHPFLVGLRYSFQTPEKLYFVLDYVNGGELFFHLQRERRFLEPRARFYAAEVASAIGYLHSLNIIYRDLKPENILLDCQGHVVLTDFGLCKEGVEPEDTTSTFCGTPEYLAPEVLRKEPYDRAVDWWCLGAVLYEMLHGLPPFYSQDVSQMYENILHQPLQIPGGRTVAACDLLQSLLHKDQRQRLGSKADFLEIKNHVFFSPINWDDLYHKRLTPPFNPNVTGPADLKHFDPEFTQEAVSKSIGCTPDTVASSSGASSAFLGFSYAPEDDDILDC
# Chain of Epithelial discoidin domain-containing receptor 1 (Homo sapiens) (Q08345 whole entry, the tested form may be a part): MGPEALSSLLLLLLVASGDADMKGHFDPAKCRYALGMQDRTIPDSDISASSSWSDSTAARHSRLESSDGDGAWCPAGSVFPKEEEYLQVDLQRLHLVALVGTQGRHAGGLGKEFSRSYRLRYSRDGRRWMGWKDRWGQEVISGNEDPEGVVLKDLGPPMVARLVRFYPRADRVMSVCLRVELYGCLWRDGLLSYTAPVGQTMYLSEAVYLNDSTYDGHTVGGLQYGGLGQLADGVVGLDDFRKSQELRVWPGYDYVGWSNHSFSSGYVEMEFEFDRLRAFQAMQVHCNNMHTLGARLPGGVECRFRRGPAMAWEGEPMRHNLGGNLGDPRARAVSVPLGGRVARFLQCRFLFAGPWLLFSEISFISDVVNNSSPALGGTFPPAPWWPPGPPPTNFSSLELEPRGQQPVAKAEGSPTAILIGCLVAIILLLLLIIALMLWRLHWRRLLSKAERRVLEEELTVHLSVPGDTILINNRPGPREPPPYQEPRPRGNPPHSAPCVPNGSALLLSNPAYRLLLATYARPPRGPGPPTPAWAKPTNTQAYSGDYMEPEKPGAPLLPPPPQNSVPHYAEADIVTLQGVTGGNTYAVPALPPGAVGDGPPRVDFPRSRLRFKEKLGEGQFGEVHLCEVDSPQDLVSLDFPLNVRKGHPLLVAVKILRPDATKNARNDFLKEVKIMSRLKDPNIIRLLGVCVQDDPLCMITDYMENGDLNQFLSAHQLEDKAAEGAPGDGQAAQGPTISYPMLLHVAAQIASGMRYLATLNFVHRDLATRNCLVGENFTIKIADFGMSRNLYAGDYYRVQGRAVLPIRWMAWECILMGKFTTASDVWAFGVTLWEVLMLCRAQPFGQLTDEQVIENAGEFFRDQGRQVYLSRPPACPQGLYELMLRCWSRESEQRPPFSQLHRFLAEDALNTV
# Chain of 3-phosphoinositide-dependent protein kinase 1 (Homo sapiens) (O15530 whole entry, canonical isoform): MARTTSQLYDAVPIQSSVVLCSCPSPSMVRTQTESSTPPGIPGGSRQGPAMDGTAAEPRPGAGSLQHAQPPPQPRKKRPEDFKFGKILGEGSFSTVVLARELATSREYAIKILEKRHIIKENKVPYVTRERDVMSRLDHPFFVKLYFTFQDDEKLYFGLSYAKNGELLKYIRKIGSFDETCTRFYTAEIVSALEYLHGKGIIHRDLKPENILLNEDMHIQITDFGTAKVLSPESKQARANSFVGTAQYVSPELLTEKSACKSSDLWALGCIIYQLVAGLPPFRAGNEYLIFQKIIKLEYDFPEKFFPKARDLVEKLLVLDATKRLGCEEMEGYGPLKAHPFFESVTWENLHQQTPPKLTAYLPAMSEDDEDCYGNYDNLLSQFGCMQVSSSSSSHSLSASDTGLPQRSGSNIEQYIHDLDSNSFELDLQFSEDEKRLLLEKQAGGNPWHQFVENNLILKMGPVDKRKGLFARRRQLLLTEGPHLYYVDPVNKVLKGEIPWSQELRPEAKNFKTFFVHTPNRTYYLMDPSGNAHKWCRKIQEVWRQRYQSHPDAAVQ
# Chain of Serine/threonine-protein kinase B-raf (P15056 whole entry): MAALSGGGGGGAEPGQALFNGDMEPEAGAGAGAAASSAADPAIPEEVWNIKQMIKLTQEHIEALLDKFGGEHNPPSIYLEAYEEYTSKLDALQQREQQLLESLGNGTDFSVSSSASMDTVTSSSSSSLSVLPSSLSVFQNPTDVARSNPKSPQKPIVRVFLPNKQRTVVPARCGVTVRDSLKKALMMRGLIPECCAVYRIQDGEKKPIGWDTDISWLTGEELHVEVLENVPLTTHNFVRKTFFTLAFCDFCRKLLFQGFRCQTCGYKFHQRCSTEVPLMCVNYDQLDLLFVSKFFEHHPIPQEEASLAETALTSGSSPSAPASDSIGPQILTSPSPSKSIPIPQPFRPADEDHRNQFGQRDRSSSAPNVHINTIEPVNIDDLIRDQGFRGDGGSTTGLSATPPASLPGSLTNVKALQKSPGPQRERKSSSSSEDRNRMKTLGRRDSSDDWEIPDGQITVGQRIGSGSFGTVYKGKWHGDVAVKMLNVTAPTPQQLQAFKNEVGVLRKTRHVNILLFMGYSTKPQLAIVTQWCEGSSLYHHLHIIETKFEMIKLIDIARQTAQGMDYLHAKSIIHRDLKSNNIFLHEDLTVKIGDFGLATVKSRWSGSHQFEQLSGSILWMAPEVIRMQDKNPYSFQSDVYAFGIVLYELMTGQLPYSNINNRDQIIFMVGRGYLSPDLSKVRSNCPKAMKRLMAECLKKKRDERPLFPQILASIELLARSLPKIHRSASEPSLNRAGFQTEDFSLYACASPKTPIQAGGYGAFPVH
# Chain of Ephrin type-A receptor 1 (Homo sapiens) (P21709 whole entry): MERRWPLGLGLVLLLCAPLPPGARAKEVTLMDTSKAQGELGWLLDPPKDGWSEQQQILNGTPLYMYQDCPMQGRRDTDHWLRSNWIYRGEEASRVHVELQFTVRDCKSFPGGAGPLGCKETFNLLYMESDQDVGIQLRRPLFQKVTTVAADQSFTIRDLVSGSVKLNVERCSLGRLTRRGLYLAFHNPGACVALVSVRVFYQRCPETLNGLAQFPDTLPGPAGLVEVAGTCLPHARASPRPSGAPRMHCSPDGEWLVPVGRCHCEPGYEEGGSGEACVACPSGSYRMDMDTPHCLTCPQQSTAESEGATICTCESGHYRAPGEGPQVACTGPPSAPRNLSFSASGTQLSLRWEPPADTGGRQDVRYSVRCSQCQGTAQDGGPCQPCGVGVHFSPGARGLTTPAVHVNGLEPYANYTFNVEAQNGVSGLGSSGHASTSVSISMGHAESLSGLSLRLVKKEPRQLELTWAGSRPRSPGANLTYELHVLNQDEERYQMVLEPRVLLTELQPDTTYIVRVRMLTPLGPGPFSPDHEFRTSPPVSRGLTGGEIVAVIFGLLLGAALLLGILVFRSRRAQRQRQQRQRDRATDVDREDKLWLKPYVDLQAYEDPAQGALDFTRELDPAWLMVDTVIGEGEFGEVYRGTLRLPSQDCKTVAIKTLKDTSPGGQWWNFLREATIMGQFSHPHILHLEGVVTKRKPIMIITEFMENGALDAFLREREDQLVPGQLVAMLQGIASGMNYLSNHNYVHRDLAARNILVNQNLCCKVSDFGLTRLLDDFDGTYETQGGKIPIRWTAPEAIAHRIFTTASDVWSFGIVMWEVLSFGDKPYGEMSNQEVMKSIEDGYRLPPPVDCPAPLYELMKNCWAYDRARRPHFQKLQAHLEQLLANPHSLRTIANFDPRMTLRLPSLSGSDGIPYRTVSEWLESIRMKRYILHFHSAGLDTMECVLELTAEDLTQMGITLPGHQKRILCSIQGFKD
# Chain of Serine/threonine-protein kinase 26 (Homo sapiens) (Q9P289 2-416 limits assumed): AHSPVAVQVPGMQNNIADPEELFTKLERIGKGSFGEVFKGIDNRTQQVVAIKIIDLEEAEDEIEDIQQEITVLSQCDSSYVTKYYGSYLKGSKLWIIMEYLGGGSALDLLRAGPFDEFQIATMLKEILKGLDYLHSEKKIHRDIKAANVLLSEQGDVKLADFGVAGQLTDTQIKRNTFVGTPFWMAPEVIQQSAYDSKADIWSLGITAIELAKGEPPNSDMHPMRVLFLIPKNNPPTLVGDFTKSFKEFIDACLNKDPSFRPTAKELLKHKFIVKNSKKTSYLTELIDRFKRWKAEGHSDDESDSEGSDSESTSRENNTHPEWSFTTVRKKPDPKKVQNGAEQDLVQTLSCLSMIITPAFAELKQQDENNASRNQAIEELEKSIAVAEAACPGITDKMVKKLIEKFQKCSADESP
# Chain of Serine/threonine-protein kinase STK11 (Homo sapiens) (Q15831 whole entry): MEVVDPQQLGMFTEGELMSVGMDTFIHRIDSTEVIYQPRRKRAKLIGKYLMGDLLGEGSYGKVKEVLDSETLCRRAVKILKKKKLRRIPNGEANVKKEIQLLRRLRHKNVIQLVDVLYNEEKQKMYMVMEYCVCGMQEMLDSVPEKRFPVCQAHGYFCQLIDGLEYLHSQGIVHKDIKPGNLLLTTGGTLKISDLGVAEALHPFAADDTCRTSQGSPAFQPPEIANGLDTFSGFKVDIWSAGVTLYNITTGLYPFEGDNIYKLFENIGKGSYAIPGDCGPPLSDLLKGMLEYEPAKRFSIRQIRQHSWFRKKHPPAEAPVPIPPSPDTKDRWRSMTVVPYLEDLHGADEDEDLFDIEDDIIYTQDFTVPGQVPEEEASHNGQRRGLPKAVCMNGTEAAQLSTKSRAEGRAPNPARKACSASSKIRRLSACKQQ
# Chain of Serine/threonine-protein kinase RIO1 (Homo sapiens) (Q9BRS2 whole entry): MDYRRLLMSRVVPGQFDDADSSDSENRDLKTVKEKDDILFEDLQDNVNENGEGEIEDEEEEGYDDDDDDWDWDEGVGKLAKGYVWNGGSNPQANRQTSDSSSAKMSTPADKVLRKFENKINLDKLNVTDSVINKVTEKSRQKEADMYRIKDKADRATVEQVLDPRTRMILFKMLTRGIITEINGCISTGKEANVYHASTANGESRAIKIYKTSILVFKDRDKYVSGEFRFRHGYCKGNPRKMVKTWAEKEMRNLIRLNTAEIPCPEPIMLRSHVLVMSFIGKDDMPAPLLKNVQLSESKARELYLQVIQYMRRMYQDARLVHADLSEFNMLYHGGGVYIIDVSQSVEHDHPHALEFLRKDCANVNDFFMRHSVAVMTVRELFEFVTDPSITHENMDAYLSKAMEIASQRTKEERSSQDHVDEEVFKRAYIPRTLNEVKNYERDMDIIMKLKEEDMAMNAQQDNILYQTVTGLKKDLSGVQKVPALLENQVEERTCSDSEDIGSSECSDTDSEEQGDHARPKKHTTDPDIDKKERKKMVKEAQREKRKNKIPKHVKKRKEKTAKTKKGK
structure (smiles),measurement,setting,value
CS(=O)(=O)N1CCCC(NC(=O)[C@H](CCC2CCCCC2)NC(=O)c2ccc(CNc3ncnc4c3nnn4-c3ccccc3)cc2)C1 (stereo not given in full) [SR-301],residual activity,[1],91%
same,residual activity,[2],86%
same,residual activity,[3],100%
same,residual activity,[4],81%
same,residual activity,[5],100%
same,residual activity,[6],100%
same,residual activity,[7],82%
same,residual activity,[8],92%
same,residual activity,[9],89%
same,residual activity,[10],93%
same,residual activity,[11],100%
same,residual activity,[12],95%
same,residual activity,[13],94%
same,residual activity,[14],89%
same,residual activity,[15],93%
same,residual activity,[16],72%
same,residual activity,[17],100%
same,residual activity,[18],100%
same,residual activity,[19],100%
same,residual activity,[20],100%
same,residual activity,[21],96%
same,residual activity,[22],66%
same,residual activity,[23],90%
same,residual activity,[24],85%
same,residual activity,[25],100%
same,residual activity,[26],73%
same,residual activity,[27],92%
same,residual activity,[28],100%
same,residual activity,[29],100%
same,residual activity,[30],100%
same,residual activity,[31],99%
same,residual activity,[32],87%
same,residual activity,[33],100%
same,residual activity,[34],100%
same,residual activity,[35],100%
same,residual activity,[36],83%
same,residual activity,[37],54%
same,residual activity,[38],88%
same,residual activity,[39],100%
same,residual activity,[40],100%
same,residual activity,[41],34%
same,residual activity,[42],84%
same,residual activity,[43],77%
same,residual activity,[44],91%
same,residual activity,[45],100%
CS(=O)(=O)N1CCCC(NC(=O)[C@H](CCC2CCCCC2)NC(=O)c2ccc(CNC(=O)c3cnc4ccccn34)cc2)C1 (stereo not given in full) [SR-302],residual activity,[1],100%
same,residual activity,[2],100%
same,residual activity,[3],100%
same,residual activity,[4],47%
same,residual activity,[5],77%
same,residual activity,[6],100%
same,residual activity,[7],70%
same,residual activity,[8],88%
same,residual activity,[9],0.1%
same,residual activity,[10],90%
same,residual activity,[11],100%
same,residual activity,[12],93%
same,residual activity,[13],94%
same,residual activity,[14],61%
same,residual activity,[15],100%
same,residual activity,[16],88%
same,residual activity,[17],73%
same,residual activity,[18],90%
same,residual activity,[19],77%
same,residual activity,[20],51%
same,residual activity,[21],100%
same,residual activity,[22],100%
same,residual activity,[23],100%
same,residual activity,[24],85%
same,residual activity,[25],95%
same,residual activity,[26],100%
same,residual activity,[27],100%
same,residual activity,[28],89%
same,residual activity,[29],100%
same,residual activity,[30],82%
same,residual activity,[31],100%
same,residual activity,[32],37%
same,residual activity,[33],99%
same,residual activity,[34],100%
same,residual activity,[35],90%
same,residual activity,[36],98%
same,residual activity,[37],73%
same,residual activity,[38],97%
same,residual activity,[39],74%
same,residual activity,[40],100%
same,residual activity,[41],83%
same,residual activity,[42],100%
same,residual activity,[43],91%
same,residual activity,[44],76%
same,residual activity,[45],100%
